Reference: ChEMBL document CHEMBL4229534, “Amelioration of mechanism-based inactivation of CYP3A4 by a H-PGDS inhibitor” (Bioorg Med Chem Lett, 2018)

Key:
[1] = molecular target: T1, CYP3A4 (Homo sapiens, UniProt P08684); test: (§1) Inhibition of recombinant human CYP3A4 assessed as residual activity using testosterone as substrate relative to control; type: ADME; settings: recombinant human CYP3A4, probe testosterone
[2] = molecular target: T1, CYP3A4; test: Inhibition of CYP3A4 in human liver microsomes assessed as residual activity using midazolam as substrate relative to control; type: ADME; set-up: concentration or dose not given beside the values; settings: probe midazolam
[3] = molecular target: T1, CYP3A4; test: (§2) Inhibition of recombinant human CYP3A4 assessed as residual activity using midazolam as substrate relative to control; type: ADME; settings: recombinant human CYP3A4, probe midazolam
[4] = molecular target: T2, Cytochrome P450 3A4 (Homo sapiens, UniProt P08684); test: Mechanism based inactivation of recombinant human CYP3A4 assessed as apparent partition ratio by measuring ratio of number of inactivator molecules that get metabolized to number of enzyme molecules inactivated using testosterone as substrate; type: ADME
T2 sequence (P08684 whole entry): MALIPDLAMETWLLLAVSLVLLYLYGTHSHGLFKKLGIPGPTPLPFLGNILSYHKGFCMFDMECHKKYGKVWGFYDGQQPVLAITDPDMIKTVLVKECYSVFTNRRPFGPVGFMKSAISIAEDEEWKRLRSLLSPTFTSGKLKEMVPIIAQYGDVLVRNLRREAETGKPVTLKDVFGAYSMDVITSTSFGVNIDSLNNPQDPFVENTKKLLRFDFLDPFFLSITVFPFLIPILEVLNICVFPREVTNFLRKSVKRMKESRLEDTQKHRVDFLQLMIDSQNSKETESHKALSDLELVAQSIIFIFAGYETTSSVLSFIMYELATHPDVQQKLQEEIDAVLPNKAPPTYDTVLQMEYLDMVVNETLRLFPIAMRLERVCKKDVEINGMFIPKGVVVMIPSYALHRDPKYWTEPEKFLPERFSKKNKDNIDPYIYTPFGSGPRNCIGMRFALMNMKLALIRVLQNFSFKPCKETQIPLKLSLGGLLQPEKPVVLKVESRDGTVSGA

[5] = molecular target: Hematopoietic prostaglandin D synthase (Homo sapiens, UniProt O60760); test: Inhibition of HPGDS (unknown origin)
Sequence of Hematopoietic prostaglandin D synthase (O60760 whole entry): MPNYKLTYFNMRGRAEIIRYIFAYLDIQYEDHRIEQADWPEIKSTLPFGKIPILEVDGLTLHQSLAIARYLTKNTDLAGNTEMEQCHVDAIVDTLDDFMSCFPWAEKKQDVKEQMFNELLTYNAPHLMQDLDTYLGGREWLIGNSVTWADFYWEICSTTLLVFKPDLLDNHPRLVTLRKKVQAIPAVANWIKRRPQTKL

[6] = molecular target: T2, Cytochrome P450 3A4; test: Mechanism based inactivation of CYP3A4 in human liver microsomes assessed as apparent partition ratio by measuring ratio of number of inactivator molecules that get metabolized to number of enzyme molecules inactivated using midazolam as substrate; type: ADME
[7] = molecular target: T1, CYP3A4; test: Inhibition of CYP3A4 in human liver microsomes assessed as residual activity using testosterone as substrate relative to control; type: ADME; set-up: concentration or dose not given beside the values; settings: probe testosterone
[8] = molecular target: T2, Cytochrome P450 3A4; test: Mechanism based inactivation of recombinant human CYP3A4 assessed as apparent partition ratio by measuring ratio of number of inactivator molecules that get metabolized to number of enzyme molecules inactivated using midazolam as substrate; type: ADME
[9] = molecular target: T2, Cytochrome P450 3A4; test: Mechanism based inactivation of CYP3A4 in human liver microsomes assessed as apparent partition ratio by measuring ratio of number of inactivator molecules that get metabolized to number of enzyme molecules inactivated using testosterone as substrate; type: ADME
[10] = molecular target: T2, Cytochrome P450 3A4; test: as §1; type: ADME; settings: recombinant enzyme
[11] = molecular target: T2, Cytochrome P450 3A4; test: as §2; type: ADME; settings: recombinant enzyme

T1 sequence (P08684 whole entry): as the sequence (P08684 whole entry) above

| Compound | activity [1] [%] | activity [2] [%] | activity [3] [%] | Ratio [4] | IC50 [5] [nM] | Ratio [6] | activity [7] [%] | Ratio [8] | Ratio [9] | activity [10] | activity [11] |
| --- | --- | --- | --- | --- | --- | --- | --- | --- | --- | --- | --- |
| COc1ccc2c(n1)c(C)cn2NC(=O)c1cnc(-c2ccccn2)nc1C | 22 | 57 | 19 | 460 | 3 | 338 | > 70 | 326 |  |  |  |
| Cc1nc(-c2ccccn2)ncc1C(=O)Nn1cc(C)c2cc(F)ccc21 |  | 30 |  |  |  | 170 to 173 | 20 |  | 160 to 167 |  |  |
| CNS(=O)(=O)c1cccc(CNC(=O)c2cnc(-c3cccc(F)c3)nc2C)c1 |  |  |  |  | 9.5 |  |  |  |  |  |  |
| Cc1nc(-c2ccccn2)ncc1C(=O)Nn1cc(C)c2nc(F)ccc21 |  | 79 |  |  | 6 |  | 91 |  |  |  |  |
| Cc1nc(-c2ncccn2)ncc1C(=O)Nn1ccc2c(C(F)(F)F)cccc21 |  | 95 |  |  | 8 |  | 90 |  |  | Not Active | Not Active |
| Cc1nc(-c2ccccn2)ncc1C(=O)Nn1ccc2c(C(F)(F)F)cccc21 | 59 | 100 | 57 | 842 | 10 |  | 91 | 1119 |  |  |  |
| CC(C)(CO)NS(=O)(=O)c1cccc(CNC(=O)c2cnc(-c3cccc(F)c3)nc2)c1 |  |  |  |  | 23 |  |  |  |  |  |  |
